Source: BindingDB's records for doi:10.7270/Q2M32T6M (Vanderbilt Screening Center for GPCRs, Ion Channels and …, 2009)

Molecular target: T1, Solute carrier family 12 member 5 (Homo sapiens, UniProt Q9H2X9)
T1 sequence (Q9H2X9 whole entry): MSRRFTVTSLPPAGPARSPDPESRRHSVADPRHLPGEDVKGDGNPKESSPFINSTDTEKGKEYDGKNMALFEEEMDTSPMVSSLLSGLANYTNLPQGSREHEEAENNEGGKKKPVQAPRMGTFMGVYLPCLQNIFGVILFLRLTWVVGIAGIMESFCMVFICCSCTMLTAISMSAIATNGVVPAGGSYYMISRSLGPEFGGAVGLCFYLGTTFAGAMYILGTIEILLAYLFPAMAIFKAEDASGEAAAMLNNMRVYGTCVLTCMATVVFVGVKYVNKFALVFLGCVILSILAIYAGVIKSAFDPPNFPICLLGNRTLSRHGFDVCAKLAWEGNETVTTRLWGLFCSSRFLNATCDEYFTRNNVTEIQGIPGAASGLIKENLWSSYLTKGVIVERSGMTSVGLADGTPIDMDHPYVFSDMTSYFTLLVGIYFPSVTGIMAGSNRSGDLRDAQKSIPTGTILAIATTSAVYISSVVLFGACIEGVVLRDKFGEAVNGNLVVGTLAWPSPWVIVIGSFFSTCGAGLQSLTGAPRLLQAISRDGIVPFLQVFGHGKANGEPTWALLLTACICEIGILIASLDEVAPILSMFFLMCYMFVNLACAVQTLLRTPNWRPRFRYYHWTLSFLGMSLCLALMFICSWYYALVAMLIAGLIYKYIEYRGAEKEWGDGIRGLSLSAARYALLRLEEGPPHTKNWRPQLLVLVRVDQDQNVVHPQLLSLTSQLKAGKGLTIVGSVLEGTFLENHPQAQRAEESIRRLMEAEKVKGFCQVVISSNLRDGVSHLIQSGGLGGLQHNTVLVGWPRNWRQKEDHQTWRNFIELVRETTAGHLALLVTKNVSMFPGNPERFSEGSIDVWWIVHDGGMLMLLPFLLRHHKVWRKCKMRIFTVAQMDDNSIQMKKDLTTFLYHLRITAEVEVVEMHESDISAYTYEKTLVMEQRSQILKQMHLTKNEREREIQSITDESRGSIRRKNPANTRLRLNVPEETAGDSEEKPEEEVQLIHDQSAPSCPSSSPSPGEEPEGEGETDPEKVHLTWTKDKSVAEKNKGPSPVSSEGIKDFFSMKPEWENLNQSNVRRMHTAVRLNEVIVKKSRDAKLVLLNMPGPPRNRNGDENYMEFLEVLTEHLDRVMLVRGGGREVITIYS
Test: KCC2 modulator potency by thallium flux, dose response, cell-based, HEK293 KCC2, FluoZin-2 fluorescence (AID 1736)
Conditions: not given

SMILES	EC50
Fc1ccc(CSc2nncn2NC/C=C/c2ccccc2)cc1 [3-[(4-fluorobenzyl)thio]-N-(3-phenyl-2-propen-1-yl)-4H-1,2,4-triazol-4-amine]	4.5 µM
Cc1cccc(OCCc2nnc(N)s2)c1C [5-[2-(2,3-Dimethyl-phenoxy)-ethyl]-[1,3,4]thiadiazol-2-ylamine]	6.16 µM
COc1ccccc1C(=O)NC1CCN(C(=S)NCCc2ccccc2)CC1 [2-methoxy-N-[1-(2-phenylethylcarbamothioyl)piperidin-4-yl]benzamide]	4.22 µM
O=C(C1CCN(S(=O)(=O)c2cccc3nsnc23)CC1)N1CCc2ccccc2C1 [2-{[1-(2,1,3-benzothiadiazol-4-ylsulfonyl)piperidin-4-yl]carbonyl}-1,2,3,4-tetrahydroisoquinoline]	23.8 µM
C=CCn1c(Cc2cccs2)nnc1SCC(=O)c1ccc2ccccc2c1 [1-(2-naphthalenyl)-2-[[4-prop-2-enyl-5-(thiophen-2-ylmethyl)-1,2,4-triazol-3-yl]thio]ethanone]	6.12 µM
O=C(Nc1cccnc1)c1ccc(COc2ccccc2Br)o1 [5-[(2-bromanylphenoxy)methyl]-N-pyridin-3-yl-furan-2-carboxamide]	2.34 µM
O=C(CSc1nnc(-c2ccc(O)cc2)n1Cc1ccco1)N1CCc2ccccc2C1 [1-(3,4-Dihydro-1H-isoquinolin-2-yl)-2-[4-furan-2-ylmethyl-5-(4-hydroxy-phenyl)-4H-[1,2,4]triazol-3-ylsulfanyl]-ethanone]	5.59 µM
O=C(Cn1cnc2c(nnn2-c2ccccc2)c1=O)NCCc1ccccc1 [2-(7-keto-3-phenyl-triazolo[4,5-d]pyrimidin-6-yl)-N-phenethyl-acetamide]	2.52 µM
Sc1nnc(Cc2c[nH]c3ccccc23)o1 [5-(1H-indol-3-ylmethyl)-1,3,4-oxadiazole-2(3H)-thione]	4.45 µM
O=C(NC(=S)Nc1nc(-c2cccc([N+](=O)[O-])c2)cs1)c1ccccc1Cl [2-chloranyl-N-[[4-(3-nitrophenyl)-1,3-thiazol-2-yl]carbamothioyl]benzamide]	7.48 µM
O=C(O)CCc1cc(I)c(Oc2ccc(O)c(I)c2)c(I)c1 [3-[4-(4-hydroxy-3-iodophenoxy)-3,5-diiodophenyl]propanoic acid]	4.25 µM
O=C(c1ccc(S(=O)(=O)c2cccc(Cl)c2)c([N+](=O)[O-])c1)N1CCN(c2ccccn2)CC1 [1-{4-[(3-chlorophenyl)sulfonyl]-3-nitrobenzoyl}-4-pyridin-2-ylpiperazine]	2.55 µM
O=C(CSc1ccc(-c2ccccc2)nn1)N1CCCc2ccccc21 [1-(3,4-dihydro-2H-quinolin-1-yl)-2-(6-phenylpyridazin-3-yl)sulfanyl-ethanone]	13.5 µM
Cc1[nH]c2ccccc2c1Cc1nnc(S)o1	0.744 µM
O=C(OCC(=O)N1CCN(C(=O)c2ccco2)CC1)c1sc2ccccc2c1Cl [3-chloro-1-benzothiophene-2-carboxylic acid [2-[4-[2-furanyl(oxo)methyl]-1-piperazinyl]-2-oxoethyl] ester]	1.6 µM
CCC(Cc1ccccc1)NC(=O)CN(C)S(=O)(=O)c1ccc2c(c1)c(=O)n(C)c(=O)n2C (centres undefined) [2-[(1,3-dimethyl-2,4-dioxo-6-quinazolinyl)sulfonyl-methylamino]-N-(1-phenylbutan-2-yl)acetamide]	7.75 µM
Cc1cccc(-c2nc(C[S+]([O-])CC(=O)N3CCc4ccccc4C3)c(C)o2)c1 (centres undefined) [1-(3,4-dihydro-1H-isoquinolin-2-yl)-2-[[5-methyl-2-(3-methylphenyl)-1,3-oxazol-4-yl]methylsulfinyl]ethanone]	13.7 µM
CN1c2ccccc2Oc2nnc(N3CCN(Cc4ccccc4)CC3)cc21 [3-(4-benzylpiperazin-1-yl)-5-methylpyridazino[3,4-b][1,4]benzoxazine]	1.88 µM
O=C(CSc1nnc(C2CC2)n1Cc1ccccc1)c1cc2ccccc2o1 [1-(1-benzofuran-2-yl)-2-[(4-benzyl-5-cyclopropyl-1,2,4-triazol-3-yl)sulfanyl]ethanone]	3.85 µM
O=S(=O)(Nc1nc2ccccc2nc1N1CCN(c2ccccn2)CC1)c1ccc(Cl)cc1 [4-chloranyl-N-[3-(4-pyridin-2-ylpiperazin-1-yl)quinoxalin-2-yl]benzenesulfonamide]	14.9 µM
O=C(O)CCN(Cc1ccccc1)S(=O)(=O)c1c(Cl)cccc1Cl [3-[(2,6-dichlorophenyl)sulfonyl-(phenylmethyl)amino]propanoic acid]	86000 µM
O=C(OCC(=O)N1CCc2ccccc2C1)c1ccc(N2CCOCC2)c([N+](=O)[O-])c1 [4-(4-morpholinyl)-3-nitrobenzoic acid [2-(3,4-dihydro-1H-isoquinolin-2-yl)-2-oxoethyl] ester]	11.5 µM

Next, values leading:

EC50	SMILES
2.3 µM	CC(C)CCNC(=O)COC(=O)/C=C/c1ccc2ccccc2n1 [(E)-3-(2-quinolinyl)-2-propenoic acid [2-(3-methylbutylamino)-2-oxoethyl] ester]
8.68 µM	COc1cc(C(=S)N2CCOCC2)ccc1OC(=O)Cc1ccc(F)cc1 [(2-methoxy-4-morpholin-4-ylcarbothioyl-phenyl) 2-(4-fluorophenyl)ethanoate]
0.388 µM	COc1ccc(-c2nnc(S/C(=C/c3ccc(Cl)cc3)C(=O)O)o2)cc1 [(E)-3-(4-chlorophenyl)-2-[[5-(4-methoxyphenyl)-1,3,4-oxadiazol-2-yl]sulfanyl]prop-2-enoic acid]
3 µM	Cc1ccc(C(=O)Nc2nc(=O)n(C(=O)c3ccccc3Cl)s2)cc1 [MLS000540480]
45.5 µM	CCn1c(SCC(=O)Nc2ccc(Cl)cc2)nc2nc3c(cc2c1=O)CCCC3 [MLS000589154]
1.85 µM	COC(=O)[C@@H](NC(=O)O[C@@H]1C(=O)c2ccc(OC)cc2O[C@H]1c1cccc(C(F)(F)F)c1)C(C)C [(2S)-2-[[(2S,3S)-4-keto-7-methoxy-2-[3-(trifluoromethyl)phenyl]chroman-3-yl]oxycarbonylamino]-3-methyl-butyric acid methyl ester]
23.4 µM	CCOC(=O)c1sc(Nc2nc3c(OC)cccc3s2)nc1C [SMR000027213]
5.1 µM	CC(=O)NCC1CCCN(c2nc3nonc3nc2N(C)Cc2ccccc2)C1 (centres undefined) [MLS000731683]
4.61 µM	O=C(c1ccc(-c2ccccc2)cc1)C1CCCN(Cc2ccncc2)C1 (centres undefined) [(4-phenylphenyl)-[1-(4-pyridylmethyl)-3-piperidyl]methanone]
827 µM	O=C(Nc1ccc2oc(-c3ccccc3F)nc2c1)c1ccco1 [MLS000709180]
192 µM	CC1Cc2ccccc2N1C(=O)/C=C/c1cccc(F)c1 (centres undefined) [(E)-3-(3-fluorophenyl)-1-(2-methyl-2,3-dihydroindol-1-yl)-2-propen-1-one]
2 µM	CC(=NNC(=O)c1ccc(Br)cc1)c1ccccc1 [MLS000558629]
0.0106 µM	O=C(NNc1nc(-c2ccccc2)cs1)c1ccccc1 [MLS000547345]
38.4 µM	CC(=O)NCCC(=O)N1CCCC(CNC(=O)c2ccc(-c3ccccc3)cc2)C1 (centres undefined) [MLS000733794]

Same assay, conditions: inactive by the depositor's call

SMILES	EC50
Cc1ccc(S(=O)(=O)NCc2ccc(C(=O)N3CCN(Cc4ccccc4)CC3)cc2)cc1 [4-methyl-N-[[4-[4-(phenylmethyl)piperazin-1-yl]carbonylphenyl]methyl]benzenesulfonamide]	6.59 µM
Cc1ccc(C(=O)CSc2nnc(COc3cccc4cccnc34)o2)cc1 [1-(4-methylphenyl)-2-[[5-(8-quinolinyloxymethyl)-1,3,4-oxadiazol-2-yl]thio]ethanone]	8.12 µM
CC(C)CNC(=O)c1ccc(COc2ccc(Cl)cc2Cl)o1 [5-[(2,4-dichlorophenoxy)methyl]-N-(2-methylpropyl)-2-furancarboxamide]	10.5 µM
Cc1nc(SCC(=O)N2CCc3ccccc3C2)c2c(C)c(C)sc2n1 [1-(3,4-Dihydro-1H-isoquinolin-2-yl)-2-(2,5,6-trimethyl-thieno[2,3-d]pyrimidin-4-ylsulfanyl)-ethanone]	14.7 µM
COn1c(SC2CCCCC2)nc2ccccc2c1=O [2-(cyclohexylthio)-3-methoxy-4-quinazolinone]	82.6 µM

Continued, values first:

EC50	SMILES
486 µM	COc1cc(OC)c(C(=O)/C=C/c2ccccc2)c(O)c1O [(E)-1-(2,3-dihydroxy-4,6-dimethoxy-phenyl)-3-phenyl-prop-2-en-1-one]
22.6 µM	CNC(=O)C(=O)Nc1nc(C23CC4CC(CC(C4)C2)C3)cs1 [N'-[4-(1-adamantyl)-1,3-thiazol-2-yl]-N-methyl-ethanediamide]
181 µM	O=c1c2ccccc2[nH]c(=S)n1CCN1CCC(=C(c2ccc(F)cc2)c2ccc(F)cc2)CC1 [SMR000058550]
